Laboratory results reported in ChEMBL document CHEMBL3745676, “Alkylamino derivatives of N-benzylpyrazine-2-carboxamide: synthesis and antimycobacterial evaluation” (Medchemcomm, 2015).
Values after ≈ are worked out from the molar mass of the structure shown. Active and inactive are the calls of the source. No cut-off for these calls is given here.

Tests used:
Pseudomonas aeruginosa = experiment: Antibacterial activity against Pseudomonas aeruginosa CCM 1961 after 24 to 48 hrs by broth microdilution method; format: functional
[1] = Cytotoxicity against human HeLa cells assessed as cell viability after 4 to 6 days by microscopic analysis; format: cell-based
[2] = Cytotoxicity against CRFK cells assessed as cell viability after 4 to 6 days by formazan-based MTS assay; design: species or system Felis catus; conditions: cat
Staphylococcus aureus = experiment: Antibacterial activity against methicillin-resistant Staphylococcus aureus H 5996/08 after 24 to 48 hrs by broth microdilution method; format: functional, organism-based
[3] = tested on: Trichophyton mentagrophytes; experiment: Antifungal activity against Trichophyton mentagrophytes 445 after 72 to 120 hrs by broth microdilution method; format: functional
Mycobacterium avium [4] = experiment: Antimycobacterial activity against Mycobacterium avium CNCTC My 80/72 after 5 days by microplate alamar blue assay; format: functional; conditions: CNCTC My 80/72, 120 h
Trichosporon asahii = experiment: Antifungal activity against Trichosporon asahii 1188 after 24 to 48 hrs by broth microdilution method; format: functional
Candida tropicalis = experiment: Antifungal activity against Candida tropicalis 156 after 24 to 48 hrs by broth microdilution method; format: functional
Influenza A virus [5] = experiment: Antiviral activity against Influenza A virus (A/Puerto Rico/8/(H1N1)) assessed as inhibition of virus-induced cytopathic effect after 3 to 6 days by formazan-based MTS assay; format: functional, organism-based
[6] = Cytotoxicity against MDCK cells assessed as cell viability after 4 to 6 days by microscopic analysis; format: cell-based, Canis lupus familiaris; conditions: dog
Mycobacterium avium [7] = experiment: Antimycobacterial activity against Mycobacterium avium CNCTC My 152/73 after 5 days by microplate alamar blue assay; format: functional; conditions: CNCTC My 152/73, 120 h
Mycobacterium kansasii = experiment: Antimycobacterial activity against Mycobacterium kansasii CNCTC My 235/80 incubated for 5 to 7 days by microplate alamar blue assay; format: functional
Pichia kudriavzevii = experiment: Antifungal activity against Candida krusei E28 after 24 to 48 hrs by broth microdilution method; format: functional
[8] = Cytotoxicity against HEL cells assessed as cell viability after 4 to 6 days by microscopic analysis; format: cell-based; conditions: human
Nakaseomyces glabratus = experiment: Antifungal activity against Candida glabrata 20/I after 24 to 48 hrs by broth microdilution method; format: functional
[9] = Lipophilicity, logK of the compound by RP-HPLC analysis; format: physicochemical
Klebsiella pneumoniae [10] = experiment: Antibacterial activity against Klebsiella pneumoniae D 11750/08 after 24 to 48 hrs by broth microdilution method; format: functional
[11] = Cytotoxicity against African green monkey Vero cells assessed as cell viability after 4 to 6 days by microscopic analysis; format: cell-based; conditions: chlorocebus sabaeus
[12] = Cytotoxicity against MDCK cells assessed as cell viability after 4 to 6 days by formazan-based MTS assay; design: species or system Canis lupus familiaris; conditions: dog
Klebsiella pneumoniae [13] = experiment: Antibacterial activity against ESBL positive Klebsiella pneumoniae J 14368/08 after 24 to 48 hrs by broth microdilution method; format: functional
Influenza A virus [14] = experiment: Antiviral activity against Influenza A virus (A/Puerto Rico/8/(H1N1)) assessed as inhibition of virus-induced cytopathic effect after 3 to 6 days by microscopic analysis; format: functional, organism-based
Aspergillus fumigatus = experiment: Antifungal activity against Aspergillus fumigatus 231 after 24 to 48 hrs by broth microdilution method; format: functional
Candida albicans = experiment: Antifungal activity against Candida albicans ATCC 44859 after 24 to 48 hrs by broth microdilution method; format: functional
[15] = tested on: Mycobacterium tuberculosis; experiment: Antimycobacterial activity against Mycobacterium tuberculosis H37Rv CNCTC My 331/88 incubated for 10 to 14 days by microplate alamar blue assay; format: functional
Escherichia coli = experiment: Antibacterial activity against Escherichia coli CCM 4517 after 24 to 48 hrs by broth microdilution method; format: functional
Lichtheimia corymbifera = experiment: Antifungal activity against Lichtheimia corymbifera 272 after 24 to 48 hrs by broth microdilution method; format: functional
[16] = tested on: Mycobacterium tuberculosis; experiment: Potency index, ratio of pyrazinamide MIC to compound MIC for Mycobacterium tuberculosis H37Rv CNCTC My 331/88; format: functional
[17] = tested on: Mycobacterium tuberculosis; experiment: Antimycobacterial activity against Mycobacterium tuberculosis H37Rv; format: functional
[18] = tested on: Mycobacterium tuberculosis; experiment: Inhibition of mycolic acid synthesis in [1,2-14C]-acetate-labelled Mycobacterium tuberculosis H37Ra at 5 ug/ml preincubated for 20 hrs followed by radiolabelling measured after 24 hrs by autoradiography; format: functional, organism-based
[19] = tested on: Mycobacterium tuberculosis; experiment: Effect on short chain fatty acids production in [1,2-14C]-acetate-labelled Mycobacterium tuberculosis H37Ra at 5 ug/ml preincubated for 20 hrs followed by radiolabelling measured after 24 hrs by autoradiography; format: functional, organism-based

CCCCCCNc1cncc(C(=O)NCc2ccccc2)n1
MIC95 (Pseudomonas aeruginosa): > 500 µM | MCC [1]: > 100 µM | CC50 [2]: > 100 µM | Activity (Staphylococcus aureus): inactive | MIC [3]: > 500 µM | MIC (Mycobacterium avium [4]): > 100 µg/mL | MIC (Trichosporon asahii): > 500 µM | MIC (Candida tropicalis): > 500 µM | EC50 (Influenza A virus [5]): > 100 µM | MCC [6]: 20 µM | MIC (Mycobacterium avium [7]): > 100 µg/mL | MIC (Mycobacterium kansasii): 40 µM | MIC (Pichia kudriavzevii): > 500 µM | MCC [8]: > 100 µM | MIC (Nakaseomyces glabratus): > 500 µM | log K [9]: 0.986 | MIC95 (Klebsiella pneumoniae [10]): > 500 µM | MCC [11]: 100 µM | CC50 [12]: 9.5 µM | MIC95 (Klebsiella pneumoniae [13]): > 500 µM | EC50 (Influenza A virus [14]): > 100 µM | MIC (Aspergillus fumigatus): > 500 µM | MIC (Candida albicans): > 500 µM | MIC [15]: 20 µM (≈ 6.25 µg/mL) | MIC95 (Escherichia coli): > 500 µM | MIC (Lichtheimia corymbifera): > 500 µM

CCCCNc1cncc(C(=O)NCc2ccccc2)n1
MIC95 (Pseudomonas aeruginosa): > 500 µM | MCC [1]: > 100 µM | CC50 [2]: > 100 µM | Activity (Staphylococcus aureus): inactive | MIC [3]: > 500 µM | MIC (Mycobacterium avium [4]): > 100 µg/mL | MIC (Trichosporon asahii): > 500 µM | MIC (Candida tropicalis): > 500 µM | EC50 (Influenza A virus [5]): > 100 µM | MCC [6]: 100 µM | MIC (Mycobacterium avium [7]): > 100 µg/mL | MIC (Mycobacterium kansasii): 176 µM | MIC (Pichia kudriavzevii): > 500 µM | MCC [8]: > 100 µM | MIC (Nakaseomyces glabratus): > 500 µM | log K [9]: 0.549 | MIC95 (Klebsiella pneumoniae [10]): > 500 µM | MCC [11]: 100 µM | CC50 [12]: 66 µM | MIC95 (Klebsiella pneumoniae [13]): > 500 µM | EC50 (Influenza A virus [14]): > 100 µM | MIC (Aspergillus fumigatus): > 500 µM | MIC (Candida albicans): > 500 µM | MIC [15]: 44 µM (≈ 12.5 µg/mL) | MIC95 (Escherichia coli): > 500 µM | MIC (Lichtheimia corymbifera): > 500 µM

CCCCCCCNc1cnc(C(=O)NCc2ccccc2)cn1
MIC95 (Pseudomonas aeruginosa): > 500 µM | Ratio [16]: <=20 | MCC [1]: > 100 µM | CC50 [2]: > 100 µM | MIC [3]: > 500 µM | MIC (Mycobacterium avium [4]): > 100 µg/mL | MIC (Trichosporon asahii): > 500 µM | MIC (Candida tropicalis): > 500 µM | EC50 (Influenza A virus [5]): 47 µM | MCC [6]: > 100 µM | MIC (Mycobacterium avium [7]): > 100 µg/mL | MIC (Mycobacterium kansasii): > 100 µg/mL | MIC (Pichia kudriavzevii): > 500 µM | MCC [8]: > 100 µM | MIC (Nakaseomyces glabratus): > 500 µM | log K [9]: 1.089 | MIC95 (Klebsiella pneumoniae [10]): > 500 µM | MCC [11]: ≥ 100 µM | CC50 [12]: > 100 µM | MIC95 (Klebsiella pneumoniae [13]): > 500 µM | EC50 (Influenza A virus [14]): 21 µM | MIC (Aspergillus fumigatus): > 500 µM | MIC (Candida albicans): > 500 µM | MIC [15]: 10 µM (≈ 3.26 µg/mL) | MIC95 (Escherichia coli): > 500 µM | MIC (Lichtheimia corymbifera): > 500 µM

CCCCCNc1cncc(C(=O)NCc2ccccc2)n1
MIC95 (Pseudomonas aeruginosa): > 500 µM | MCC [1]: > 100 µM | CC50 [2]: > 100 µM | Activity (Staphylococcus aureus): inactive | MIC [3]: > 500 µM | MIC (Mycobacterium avium [4]): > 100 µg/mL | MIC (Trichosporon asahii): > 500 µM | MIC (Candida tropicalis): > 500 µM | EC50 (Influenza A virus [5]): > 100 µM | MCC [6]: 20 µM | MIC (Mycobacterium avium [7]): > 100 µg/mL | MIC (Mycobacterium kansasii): 84 µM | MIC (Pichia kudriavzevii): > 500 µM | MCC [8]: > 100 µM | MIC (Nakaseomyces glabratus): > 500 µM | log K [9]: 0.768 | MIC95 (Klebsiella pneumoniae [10]): > 500 µM | MCC [11]: > 100 µM | CC50 [12]: 33 µM | MIC95 (Klebsiella pneumoniae [13]): > 500 µM | EC50 (Influenza A virus [14]): > 100 µM | MIC (Aspergillus fumigatus): > 500 µM | MIC (Candida albicans): > 500 µM | MIC [15]: 42 µM (≈ 12.5 µg/mL) | MIC95 (Escherichia coli): > 500 µM | MIC (Lichtheimia corymbifera): > 500 µM

O=C(NCc1ccccc1)c1cnc(Cl)cn1
MIC (Mycobacterium avium [4]): > 100 µg/mL | MIC (Mycobacterium avium [7]): > 100 µg/mL | MIC [17]: 100 µM (≈ 24.8 µg/mL) | MIC (Mycobacterium kansasii): 100 µg/mL | log K [9]: 0.186

NNC(=O)c1ccncc1 [ISONIAZID]
inhibition [18]: Active | Activity [19]: inactive | MIC (Mycobacterium kansasii): 11 µM | log K [9]: -0.743 | MIC [15]: 2.8 µM (≈ 0.384 µg/mL)

CCCCCCNc1cnc(C(=O)NCc2ccccc2)cn1
MIC95 (Pseudomonas aeruginosa): > 500 µM | Ratio [16]: <=20 | MCC [1]: > 100 µM | CC50 [2]: > 100 µM | MIC [3]: > 500 µM | MIC (Mycobacterium avium [4]): > 100 µg/mL | MIC (Trichosporon asahii): > 500 µM | MIC (Candida tropicalis): > 500 µM | EC50 (Influenza A virus [5]): 62 µM | MCC [6]: > 100 µM | MIC (Mycobacterium avium [7]): > 100 µg/mL | MIC (Mycobacterium kansasii): > 100 µg/mL | MIC (Pichia kudriavzevii): > 500 µM | MCC [8]: > 100 µM | MIC (Nakaseomyces glabratus): > 500 µM | log K [9]: 0.859 | MIC95 (Klebsiella pneumoniae [10]): > 500 µM | MCC [11]: ≥ 100 µM | CC50 [12]: > 100 µM | MIC95 (Klebsiella pneumoniae [13]): > 500 µM | EC50 (Influenza A virus [14]): 52 µM | MIC (Aspergillus fumigatus): > 500 µM | MIC (Candida albicans): > 500 µM | MIC [15]: 10 µM (≈ 3.12 µg/mL) | MIC95 (Escherichia coli): > 500 µM | MIC (Lichtheimia corymbifera): > 500 µM

CCCCCCCNc1cncc(C(=O)NCc2ccccc2)n1
inhibition [18]: inactive | MIC95 (Pseudomonas aeruginosa): > 500 µM | Ratio [16]: <=20 | MCC [1]: > 100 µM | CC50 [2]: > 100 µM | Activity (Staphylococcus aureus): inactive | MIC [3]: > 500 µM | MIC (Mycobacterium avium [4]): > 100 µg/mL | MIC (Trichosporon asahii): > 500 µM | MIC (Candida tropicalis): > 500 µM | EC50 (Influenza A virus [5]): > 100 µM | MCC [6]: 4 µM | MIC (Mycobacterium avium [7]): > 100 µg/mL | MIC (Mycobacterium kansasii): 38 µM | MIC (Pichia kudriavzevii): > 500 µM | MCC [8]: > 100 µM | MIC (Nakaseomyces glabratus): > 500 µM | log K [9]: 1.207 | MIC95 (Klebsiella pneumoniae [10]): > 500 µM | MCC [11]: > 100 µM | CC50 [12]: 2.4 µM | MIC95 (Klebsiella pneumoniae [13]): > 500 µM | EC50 (Influenza A virus [14]): > 100 µM | MIC (Aspergillus fumigatus): > 500 µM | MIC (Candida albicans): > 500 µM | MIC [15]: 10 µM (≈ 3.26 µg/mL) | MIC95 (Escherichia coli): > 500 µM | MIC (Lichtheimia corymbifera): > 500 µM

O=C(NCc1ccccc1)c1cncc(Cl)n1
MIC (Mycobacterium avium [4]): > 100 µg/mL | MIC (Mycobacterium avium [7]): > 100 µg/mL | MIC [17]: 50 µM (≈ 12.4 µg/mL) | MIC (Mycobacterium kansasii): 404 µM | log K [9]: 0.2
